Patent US6451293B1, “Combination of erythrulose and a reducing sugar with self-tanning properties” (Pentapharm AG, priority 1997, dated 2002)

What was measured:
skin [1] = assay: time for the skin tan/colour to develop; settings: in vivo
Experimental: The hitherto most frequently used active substance is dihydroxyacetone (hereinafter referred to as “DHA”). The fast tanning active substance (4-7 hours) does, however, have some disadvantages. The skin colour achieved is yellowish-brown, which produces an unnatural colour, particularly in pale skin. In addition, the tan is irregular and soon pales again because the top-most layers of the epidermis are quickly shed. […] This may be attributed to the fact that erythrulose dyes the skin more slowly (the colour takes about 20-24 hours to develop) and less intensively, but instead also penetrates lower layers of the Stratum corneum where it is also able to react with the free amino groups. This not only results in more even tanning, but also in a retarded effect, with the result that the tan lasts longer. Moreover the skin becomes less dried out than, for example, with DHA alone. The synergistic effect, that will subsequently also be shown with reference to examples, of the active substance combination erythrulose/other reducing sugars, such as for example DHA, was not predictable.

skin [2] = settings: known active substance, background statement; cited from earlier work

## O=C(CO)C(O)CO (racemic) [erythrulose, 1,3,4-trihydroxy-butan-2-one]
Skin [1]
  time the colour takes to develop: 20 to 24 h

## O=C(CO)CO [DHA, 1,3-dihydroxy-propan-2-one]
Skin [2]
  time of tanning: 4 to 7 h
